Results published in ChEMBL document CHEMBL4828719, “H2dpa derivatives containing pentadentate ligands: An acyclic adjuvant potentiates meropenem activity in vitro and in vivo against metallo-β-lactamase-producing Enterobacterales” (Eur J Med Chem, 2021).
≈ marks a conversion by molar mass, not a printed value. Calls of active or inactive are those of the source. No cut-off for these calls is given here.

How the values were obtained:
[1] = tested on: Klebsiella pneumoniae; experiment: Antibacterial activity against NDM-producing carbapenem resistant Klebsiella pneumoniae infected in BALB/c mouse sepsis model assessed as animal survival at 10 mg/kg, ip measured after 48 hrs; assay type: functional, organism-based
[2] = Zinc chelation-dependent inhibition of NDM-1 (unknown origin) expressed in Escherichia coli BL21 (DE3) using meropenem as substrate preincubated with enzyme for 5 to 10 mins followed by substrate addition
[3] = Zinc chelation-dependent inhibition of VIM-2 (unknown origin) expressed in Escherichia coli BL21 (DE3) using nitrocefin as substrate preincubated with enzyme for 5 to 10 mins followed by substrate addition
[4] = tested on: Escherichia coli; experiment: Antibacterial activity against NDM-1 producing Escherichia coli DH5alpha assessed as decrease in bacterial growth incubated for 16 to 20 hrs by CLSI based microdilution method; assay type: functional; conditions: DH5[alpha], time 16-20 hrs
[5] = tested on: Escherichia coli; experiment: Antibacterial activity against VIM-1 producing Escherichia coli DH5alpha assessed as decrease in bacterial growth incubated for 16 to 20 hrs by CLSI based microdilution method; assay type: functional; conditions: DH5[alpha], time 16-20 hrs
[6] = tested on: Enterobacter cloacae; experiment: Antibacterial activity against MBL producing Enterobacter cloacae isolates assessed as inhibition of bacterial growth at 64 ug/ml incubated for 16 to 20 hrs by CLSI based microdilution method; assay type: functional, organism-based; conditions: dose 64.0 µg/ml, time 16-20 hrs
[7] = tested on: Klebsiella oxytoca; experiment: Antibacterial activity against MBL producing Klebsiella oxytoca isolates assessed as inhibition of bacterial growth at 64 ug/ml incubated for 16 to 20 hrs by CLSI based microdilution method; assay type: functional, organism-based; conditions: dose 64.0 µg/ml, time 16-20 hrs
[8] = tested on: Citrobacter freundii; experiment: Antibacterial activity against MBL producing Citrobacter freundii isolates assessed as inhibition of bacterial growth at 64 ug/ml incubated for 16 to 20 hrs by CLSI based microdilution method; assay type: functional, organism-based; conditions: dose 64.0 µg/ml, time 16-20 hrs
[9] = tested on: Enterobacter hormaechei; experiment: Antibacterial activity against MBL producing Enterobacter hormaechei isolates assessed as inhibition of bacterial growth at 64 ug/ml incubated for 16 to 20 hrs by CLSI based microdilution method; assay type: functional, organism-based; conditions: dose 64.0 µg/ml, time 16-20 hrs
[10] = tested on: Escherichia coli; experiment: Antibacterial activity against VIM-1 producing Escherichia coli DH5 alpha assessed as bacterial growth at 8 ug/ml incubated for 16 to 20 hrs by CLSI based microdilution method; assay type: functional; conditions: dose 8 µg/ml; time 16-20 hrs
[11] = tested on: Escherichia coli; experiment: Antibiotic adjuvant activity against meropenem-treated IMP-4 producing Escherichia coli DH5 alpha assessed as bacterial growth at 8 ug/ml incubated for 16 to 20 hrs in the presence of meropenem and 100 uM zinc sulfate by CLSI based microdilution method; assay type: functional; conditions: dose 8 µg/ml; time 16-20 hrs
[12] = tested on: Escherichia coli; experiment: Antibiotic adjuvant activity against meropenem-treated IMP-4 producing Escherichia coli DH5 alpha assessed as inhibition of bacterial growth at 8 ug/ml incubated for 16 to 20 hrs in the presence of meropenem and 1 to 10 uM zinc sulfate by CLSI based microdilution method; assay type: functional, organism-based; conditions: dose 8.0 µg/ml, time 16-20 hrs
[13] = Toxicity in sheep RBC assessed as induction of hemolysis measured after 1 hr; assay type: tissue-based, Ovis aries, Erythrocyte; conditions: sheep red blood cells
[14] = Toxicity in sheep RBC assessed as induction of hemolysis at 1024 microg/ml measured after 1 hr relative to control; assay type: tissue-based, Ovis aries, Erythrocyte; conditions: sheep red blood cells, at 1024 µg/mL, read-out: Activity
[15] = tested on: GES1; experiment: Cytotoxicity against human GES1 cells assessed as live cells by measuring green fluorescence at 32 ug/ml measured after 24 hrs by calceinAM/propidium iodide staining based fluorescence microscopy; assay type: cell-based; conditions: ges1, 24 h, dose 32 µg/ml
[16] = Acute toxicity in BALB/c mouse assessed as survival rate at 10 to 50 mg/kg, ip administered as single dose measured for 72 hrs; assay type: organism-based; conditions: in vivo, dose 10-50 mg/kg
[17] = Acute toxicity in BALB/c mouse assessed as change in WBC count at 50 mg/kg, ip administered as single dose measured after 24 hrs; assay type: organism-based; conditions: in vivo
[18] = Acute toxicity in BALB/c mouse assessed as change in mean corpuscular volume at 50 mg/kg, ip administered as single dose measured after 24 hrs; assay type: organism-based; conditions: in vivo
[19] = Acute toxicity in BALB/c mouse assessed as change in platelet count at 50 mg/kg, ip administered as single dose measured after 24 hrs; assay type: organism-based; conditions: in vivo
[20] = Acute toxicity in BALB/c mouse assessed as change in urea level in serum at 50 mg/kg, ip administered as single dose measured after 24 hrs; assay type: organism-based; conditions: in vivo
[21] = Non competitive inhibition of VIM-2 (unknown origin) assessed as inhibition of substrate hydrolysis by measuring decrease in Vmax using nitrocefin as substrate preincubated with enzyme for 5 mins followed by substrate addition by Lineweaver-Burk plot analysis
[22] = Zinc chelation-dependent inhibition of NDM-1 (unknown origin) expressed in Escherichia coli DH5 alpha using meropenem as substrate preincubated with enzyme for 5 mins followed by substrate addition in the presence of zinc sulfate
[23] = Zinc chelation-dependent inhibition of IMP-1 (unknown origin) expressed in Escherichia coli DH5 alpha using imipenem as substrate preincubated with enzyme for 5 mins followed by substrate addition in the presence of zinc sulfate
[24] = tested on: Escherichia coli; experiment: Antibiotic adjuvant activity against meropenem-treated IMP-4 producing Escherichia coli DH5 alpha assessed as bacterial growth at 8 ug/ml incubated for 16 to 20 hrs in the presence of meropenem by CLSI based microdilution method; assay type: functional; conditions: dose 8 µg/ml; time 16-20 hrs
[25] = tested on: Klebsiella pneumoniae; experiment: Antibiotic adjuvant activity against meropenem-treated NDM-producing carbapenem resistant Klebsiella pneumoniae infected in BALB/c mouse sepsis model assessed as reduction of bacterial load in liver at 10 mg/kg, ip in the presence of meropenem observed for 2 days; assay type: functional, organism-based; conditions: time 2.0 day
[26] = tested on: Klebsiella pneumoniae; experiment: Antibiotic adjuvant activity against meropenem-treated NDM-producing carbapenem resistant Klebsiella pneumoniae infected in BALB/c mouse sepsis model assessed as reduction of bacterial load in spleen at 10 mg/kg, ip in the presence of meropenem observed for 2 days; assay type: functional, organism-based; conditions: time 2.0 day
[27] = tested on: Klebsiella pneumoniae; experiment: Antibacterial activity against NDM-producing carbapenem resistant Klebsiella pneumoniae infected in BALB/c mouse sepsis model assessed as swollen and degenerated liver cells with localized focal necrosis at 10 mg/kg, ip observed for 2 days by HE staining based assay; assay type: functional, organism-based; conditions: time 2.0 day
[28] = tested on: Klebsiella pneumoniae; experiment: Antibiotic adjuvant activity against meropenem-treated NDM-producing carbapenem resistant Klebsiella pneumoniae infected in BALB/c mouse sepsis model assessed as complete liver lobule structure with radially arranged hepatic cords and visible central veins at 10 mg/kg, ip in the presence of meropenem observed for 2 days by HE staining based assay; assay type: functional, organism-based; conditions: time 2.0 day
[29] = tested on: Escherichia coli; experiment: Synergistic antibacterial activity against NDM-1 producing Escherichia coli DH5alpha assessed as fractional inhibitory concentration index incubated for 16 to 20 hrs in presence of meropenem by checkerboard assay; assay type: functional, DH5[alpha]; conditions: time 16-20 hrs
[30] = tested on: Escherichia coli; experiment: Synergistic antibacterial activity against VIM-1 producing Escherichia coli DH5alpha assessed as fractional inhibitory concentration index incubated for 16 to 20 hrs in presence of meropenem by checkerboard assay; assay type: functional, DH5[alpha]; conditions: time 16-20 hrs
[31] = tested on: Escherichia coli; experiment: Antibiotic adjuvant activity against NDM-1 producing Escherichia coli DH5alpha assessed as potentiation of meropenem-induced antibacterial activity by measuring meropenem MIC at 16 ug/ml incubated for 16 to 20 hrs by checkerboard assay (reference value: 32 ug/ml); assay type: functional; conditions: DH5[alpha], dose 16 µg/ml, time 16-20 hrs
[32] = tested on: Escherichia coli; experiment: Antibiotic adjuvant activity against NDM-1 producing Escherichia coli DH5alpha assessed as potentiation of meropenem-induced antibacterial activity by measuring fold reduction in meropenem MIC at 16 ug/ml incubated for 16 to 20 hrs by checkerboard assay; assay type: functional, DH5[alpha]; conditions: dose 16 µg/ml; time 16-20 hrs

Structure (SMILES)	Activity [1]	IC50 [2] [nM]	IC50 [3] [nM]	MIC [4] [µg/mL]	MIC [5] [µg/mL]	Activity [6]	Activity [7]	Activity [8]	Activity [9]	Activity [10] [%]	Activity [11] [%]	Activity [12]	HC50 at 1 h [13] [µg/mL]	hemolysis at 1 h, 1024 microg/ml [14] [%]	Activity [15]	survival at 72 h [16] [%]	Activity [17]	Activity [18]	Activity [19]	Activity [20]	other results
C[C@H](C(=O)O)N(Cc1cccc(C(=O)O)n1)Cc1cccc(C(=O)O)n1	inactive	1600	1560	128 (≈ 356 µM)	128 (≈ 356 µM)	inactive	inactive	inactive	inactive	95	100	Active	> 1020	< 7	Non-Toxic	100	Non-Toxic	Non-Toxic	Non-Toxic	Non-Toxic	Ki [21]: 6.16 µM; Activity [22]: inactive; Activity [23]: inactive; Activity [24]: <10%; Activity [25]: Active; Activity [26]: Active; Activity [27]: inactive; Activity [28]: Active; fractional inhibitory concentration index (FICI) [29]: 0.07; fractional inhibitory concentration index (FICI) [30]: 0.07; MIC [31]: < 0.0312 µg/mL; fold change (FC) [32]: >1000
C[C@@H](C(=O)O)N(Cc1cccc(C(=O)O)n1)Cc1cccc(C(=O)O)n1	inactive	1690	1540	128 (≈ 356 µM)	128 (≈ 356 µM)	inactive	inactive	inactive	inactive	95	100	Active	> 1020	< 7	Non-Toxic	100	Non-Toxic	Non-Toxic	Non-Toxic	Non-Toxic	Ki [21]: 5.83 µM; Activity [22]: inactive; Activity [23]: inactive; Activity [24]: <10%; Activity [25]: Active; Activity [26]: Active; Activity [27]: inactive; Activity [28]: Active; fractional inhibitory concentration index (FICI) [29]: 0.07; fractional inhibitory concentration index (FICI) [30]: 0.07; MIC [31]: < 0.0312 µg/mL; fold change (FC) [32]: >1000
